Test results published in patent publication US20190358182A1, “NOVEL MECHANISM FOR DECREASING OPIOID REWARD” (THE TRUSTEES OF INDIANA UNIVERSITY, priority 2018, published 2019).
“Also recorded” adds a separate entry of the source.

Tests used:
PSD95-nNOS [1] = target: T1, PSD95-nNOS (Homo sapiens, UniProt P29475+P78352); assay: Alphascreen in vitro assay of PSD95-nNOS binding (purified proteins); conditions: purified nNOS and PSD95 proteins, FIG. 2
Source text: Mechanism: We developed an in vitro assay using Alphascreen to establish whether IC87201 and ZL006 directly disrupt interactions between purified nNOS and PSD95 proteins. […] A later group identified ZL006.

[2] = system: NMDA-induced NO formation; assay: NMDA-induced NO formation / cGMP levels in primary hippocampal cultures; type: cell-based; conditions: for NMDA-induced NO formation: data not shown, Smith et al. (2016); for NMDA-stimulated cGMP levels: primary hippocampal cultures, published in Smith et al. (2016)
PSD95-ERB4 = PSD95-ERB4 (Homo sapiens, UniProt P78352); assay: Alphascreen, interaction of PSD95 with unrelated proteins; type: binding; conditions: FIG. 2
rats [3] = assay: Radial arm maze task for source and spatial working memory; conditions: MK801 0.1 or 0.2 mg/kg i.p., IC87201 and ZL006 10 mg/kg i.p., 30 min after injection
Experimental: Rats were trained in a radial arm maze task that tests both source and spatial working memory for these experiments. Data are average of three trials 30 min after drug injection (n=6/group).
Memory impairment can confound CPP studies that depend on learning. Experiments were conducted to determine whether PSD95-nNOS inhibitors impair normal memory functions or show favorable side effect profiles compared to NMDAR antagonist MK801. We used a highly sensitive “source memory” task developed by applicants for use in rats to better mimic types of memory that are actually impaired in humans.

rats [4] = assay: Single trial conditioned place preference (CPP); type: in vivo, rat; conditions: for single trial CPP to the inhibitor alone: acute treatment alone, data not shown; for single trial morphine-induced CPP on acute co-treatment: rats, FIG. 3B, 3C
Source text: FIGS. 3A-3C present data from a conditioned place preference study where one chamber was paired with the drug treatment and the other chamber was paired with the vehicle. Animals are subsequently tested in the drug free state to determine if the drug pairing produced reward or aversion in the animals.

[5] = cited from earlier work; for pain hypersensitivity / pathological pain: chronic pain models; for nociceptive responding / basal nociceptive thresholds without injury: naïve animals, absence of injury
[6] = Novel object recognition test; type: in vivo; conditions: data not shown
Rota-rod test = type: in vivo; conditions: 10-30 mg/kg i.p., FIG. 5B
rats [7] = conditions: for conditioned place preference to morphine on coadministration: inhibitor 10 mg/kg i.p. × 4 pairings with morphine 6 mg/kg i.p., FIG. 4E, 4F
Morris Water maze = type: in vivo; conditions: FIG. 5A
rats [8] = conditions: cited from earlier work
nNOS with PSD95 = target: T2, nNOS with PSD95 (Mus musculus, UniProt Q62108+Q9Z0J4); conditions: WT but not nNOS −/− mice; cited from earlier work
T2 construct: host or cells: ischemic cortex of wild-type mice

mice = conditions: wild type (WT) but not nNOS −/− mice; cited from earlier work
DA efflux in NAc shell = assay: Fast-scan cyclic voltammetry of electrically evoked DA in NAc shell; type: in vivo, rat
Source text: Design and Rationale: Although FSCV can record spontaneously occurring DA transients in behaving animals, the anesthetized preparation is preferred because it provides reliable and reproducible DA signals independent of behavioral activity. In fact, the fluctuating and intermittent nature of behavior-related DA signals (e.g.,) could confound efforts to establish a first-ever characterization of PSD95-nNOS disrupters on DA dynamics. […] Rats are fixed in a stereotaxic frame, and a carbon-fiber working electrode (6 μm diameter) is lowered into NAc shell. A bipolar stimulating electrode is lowered over the ipsilateral MFB to evoke endogenous DA release. An Ag/AgCl reference is placed on the contralateral cortex. […] Voltammograms are obtained every 100 ms at a scan rate of 400 v/s.
The basic design is to collect baseline DA signals (30 min) evoked by MFB stimulation, administer (ip) test drug(s) or vehicle, and collect post-administration evoked DA signals. […] The effects of each compound (injected i.p.) will be monitored for at least 60 min and tested in separate groups of rats (n=10/group). […] To evoke DA release, we apply a biphasic current (60 Hz, 0.4 s, 300 μA) to the stimulating electrode.
Stimulations at 60 Hz are applied every 2 min to ensure renewal of the readily releasable DA pool. Evoked signals are resolved into respective rates for release and uptake, and pre- and postdrug data are compared. Upon completion of recording, the working electrode is used for postcalibration testing to estimate the in vivo concentration of DA. The analysis used to assess changes in DA release and uptake involves a modification of Michaelis-Menten kinetics. We use mathematical modeling that describes the rate of change in evoked DA concentration as the counteracting balance of release and reuptake: d[DA]/dt=[DA]p*f−Vmax/(Km/[DA]+1), where [DA] is the extracellular DA concentration, [DA]p refers to the extracellular DA concentration evoked per stimulus pulse, Vmax represents the Michaelis-Menten term for maximal uptake rate, Km is the Michaelis-Menten term inversely proportional to transporter affinity, and f is the frequency of the stimulation train. Thus, both Km and Vmax are Michaelis-Menten rate constants that describe uptake (see FIG. 7B). [DA]p describes the rate of stimulated release. Km is held constant at a 0.2 μM, the reported value in striatum for anesthetized rodents. [DA]p and Vmax are determined by the above equation in combination with curve-fitting software that incorporates a simplex minimization algorithm.

PSD95-nNOS [9] = target: T1, PSD95-nNOS; conditions: as described for the control compound; cited from earlier work
rats [10] = assay: Morphine self-administration, FR1 schedule (preliminary study); type: in vivo, rat; conditions: morphine 0.1 mg/kg/injection

Chain of PSD95-ERB4 (P78352 whole entry): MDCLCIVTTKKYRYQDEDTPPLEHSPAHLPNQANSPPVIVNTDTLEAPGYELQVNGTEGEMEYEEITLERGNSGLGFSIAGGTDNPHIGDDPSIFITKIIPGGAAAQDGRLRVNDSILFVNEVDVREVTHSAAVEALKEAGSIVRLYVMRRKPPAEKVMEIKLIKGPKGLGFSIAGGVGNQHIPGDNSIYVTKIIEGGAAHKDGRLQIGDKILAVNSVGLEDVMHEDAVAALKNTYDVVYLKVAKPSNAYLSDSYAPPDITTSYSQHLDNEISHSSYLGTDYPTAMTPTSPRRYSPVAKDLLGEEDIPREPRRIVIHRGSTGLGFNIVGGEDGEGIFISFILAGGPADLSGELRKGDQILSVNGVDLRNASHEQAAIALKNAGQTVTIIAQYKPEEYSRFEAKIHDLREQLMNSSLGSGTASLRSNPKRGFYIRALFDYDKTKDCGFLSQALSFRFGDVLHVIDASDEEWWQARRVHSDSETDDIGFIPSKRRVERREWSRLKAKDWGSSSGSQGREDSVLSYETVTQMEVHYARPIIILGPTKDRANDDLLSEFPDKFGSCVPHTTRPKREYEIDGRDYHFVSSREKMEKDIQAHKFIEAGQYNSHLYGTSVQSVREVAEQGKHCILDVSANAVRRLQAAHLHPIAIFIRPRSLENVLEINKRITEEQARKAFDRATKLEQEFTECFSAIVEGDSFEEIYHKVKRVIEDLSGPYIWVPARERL
T1 sequence (P78352 whole entry): as above
T1 sequence (P29475 whole entry): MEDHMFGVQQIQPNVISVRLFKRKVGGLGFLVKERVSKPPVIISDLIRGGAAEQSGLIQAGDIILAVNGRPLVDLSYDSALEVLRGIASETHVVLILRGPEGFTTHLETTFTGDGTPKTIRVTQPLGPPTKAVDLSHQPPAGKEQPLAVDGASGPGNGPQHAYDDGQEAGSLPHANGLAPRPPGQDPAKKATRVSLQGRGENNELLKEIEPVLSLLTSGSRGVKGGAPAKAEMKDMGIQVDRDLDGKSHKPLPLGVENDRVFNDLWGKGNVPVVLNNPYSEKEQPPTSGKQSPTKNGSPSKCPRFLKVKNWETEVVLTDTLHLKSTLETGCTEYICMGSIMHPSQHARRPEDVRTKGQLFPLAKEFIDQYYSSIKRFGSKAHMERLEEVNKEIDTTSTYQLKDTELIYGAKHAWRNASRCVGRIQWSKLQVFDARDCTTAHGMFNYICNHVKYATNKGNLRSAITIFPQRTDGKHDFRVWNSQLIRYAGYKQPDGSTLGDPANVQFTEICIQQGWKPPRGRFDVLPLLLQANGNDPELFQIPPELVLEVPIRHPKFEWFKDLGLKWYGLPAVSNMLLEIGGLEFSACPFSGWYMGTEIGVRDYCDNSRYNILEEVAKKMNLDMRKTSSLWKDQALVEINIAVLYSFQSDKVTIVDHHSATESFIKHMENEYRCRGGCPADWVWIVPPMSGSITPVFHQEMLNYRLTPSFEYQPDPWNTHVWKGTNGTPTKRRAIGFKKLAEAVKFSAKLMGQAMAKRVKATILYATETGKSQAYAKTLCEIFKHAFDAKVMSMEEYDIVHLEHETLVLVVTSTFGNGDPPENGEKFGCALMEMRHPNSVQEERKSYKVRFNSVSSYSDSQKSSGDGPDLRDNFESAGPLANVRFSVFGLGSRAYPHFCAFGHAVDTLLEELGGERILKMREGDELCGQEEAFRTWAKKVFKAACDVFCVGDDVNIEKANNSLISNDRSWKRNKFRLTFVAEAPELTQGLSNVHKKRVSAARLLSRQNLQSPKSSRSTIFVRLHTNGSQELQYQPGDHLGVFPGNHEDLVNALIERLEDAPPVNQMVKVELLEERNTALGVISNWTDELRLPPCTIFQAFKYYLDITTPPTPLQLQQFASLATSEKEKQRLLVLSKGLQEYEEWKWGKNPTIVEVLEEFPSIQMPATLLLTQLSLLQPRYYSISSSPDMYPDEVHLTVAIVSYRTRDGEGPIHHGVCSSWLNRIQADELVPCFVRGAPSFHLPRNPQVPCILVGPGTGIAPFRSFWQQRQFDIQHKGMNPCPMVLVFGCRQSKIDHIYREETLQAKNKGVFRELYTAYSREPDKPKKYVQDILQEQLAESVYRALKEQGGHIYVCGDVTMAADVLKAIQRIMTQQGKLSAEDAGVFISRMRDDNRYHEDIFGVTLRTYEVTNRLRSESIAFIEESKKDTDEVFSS
T2 sequence (Q9Z0J4 whole entry): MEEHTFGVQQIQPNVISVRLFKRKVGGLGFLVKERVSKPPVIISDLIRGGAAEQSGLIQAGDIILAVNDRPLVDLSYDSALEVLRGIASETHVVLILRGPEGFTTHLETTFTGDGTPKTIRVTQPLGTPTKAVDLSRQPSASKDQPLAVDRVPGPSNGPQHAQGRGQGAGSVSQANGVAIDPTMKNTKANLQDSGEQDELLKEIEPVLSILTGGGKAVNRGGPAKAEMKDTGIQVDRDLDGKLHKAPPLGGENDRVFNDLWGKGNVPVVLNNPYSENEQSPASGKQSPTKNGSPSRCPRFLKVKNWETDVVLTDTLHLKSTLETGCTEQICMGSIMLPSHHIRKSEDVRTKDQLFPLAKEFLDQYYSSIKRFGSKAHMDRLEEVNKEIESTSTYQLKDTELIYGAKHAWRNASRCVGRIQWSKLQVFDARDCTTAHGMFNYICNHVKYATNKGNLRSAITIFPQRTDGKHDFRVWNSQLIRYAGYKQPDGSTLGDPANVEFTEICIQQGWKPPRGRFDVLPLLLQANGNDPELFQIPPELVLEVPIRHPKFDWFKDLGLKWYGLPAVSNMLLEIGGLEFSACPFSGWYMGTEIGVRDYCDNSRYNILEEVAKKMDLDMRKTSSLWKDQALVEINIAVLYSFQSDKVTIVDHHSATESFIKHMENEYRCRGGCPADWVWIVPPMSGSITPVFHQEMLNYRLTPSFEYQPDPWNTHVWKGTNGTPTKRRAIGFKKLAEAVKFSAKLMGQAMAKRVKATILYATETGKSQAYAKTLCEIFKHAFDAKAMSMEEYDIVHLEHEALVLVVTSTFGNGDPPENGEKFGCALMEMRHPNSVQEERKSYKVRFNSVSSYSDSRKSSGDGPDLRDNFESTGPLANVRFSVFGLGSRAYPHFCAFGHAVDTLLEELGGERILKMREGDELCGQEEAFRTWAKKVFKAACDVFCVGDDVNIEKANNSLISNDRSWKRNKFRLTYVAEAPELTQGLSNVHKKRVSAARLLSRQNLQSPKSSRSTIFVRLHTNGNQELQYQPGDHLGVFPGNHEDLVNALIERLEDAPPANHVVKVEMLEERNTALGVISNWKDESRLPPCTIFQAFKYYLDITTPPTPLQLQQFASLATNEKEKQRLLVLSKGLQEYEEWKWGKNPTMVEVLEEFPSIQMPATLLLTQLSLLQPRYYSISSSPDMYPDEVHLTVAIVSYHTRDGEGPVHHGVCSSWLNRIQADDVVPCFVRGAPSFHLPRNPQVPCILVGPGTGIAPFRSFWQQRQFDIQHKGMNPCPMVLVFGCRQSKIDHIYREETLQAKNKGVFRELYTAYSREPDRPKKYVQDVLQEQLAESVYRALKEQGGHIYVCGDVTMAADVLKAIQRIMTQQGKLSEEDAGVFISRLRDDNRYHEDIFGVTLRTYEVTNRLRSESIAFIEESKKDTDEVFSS
T2 sequence (Q62108 whole entry): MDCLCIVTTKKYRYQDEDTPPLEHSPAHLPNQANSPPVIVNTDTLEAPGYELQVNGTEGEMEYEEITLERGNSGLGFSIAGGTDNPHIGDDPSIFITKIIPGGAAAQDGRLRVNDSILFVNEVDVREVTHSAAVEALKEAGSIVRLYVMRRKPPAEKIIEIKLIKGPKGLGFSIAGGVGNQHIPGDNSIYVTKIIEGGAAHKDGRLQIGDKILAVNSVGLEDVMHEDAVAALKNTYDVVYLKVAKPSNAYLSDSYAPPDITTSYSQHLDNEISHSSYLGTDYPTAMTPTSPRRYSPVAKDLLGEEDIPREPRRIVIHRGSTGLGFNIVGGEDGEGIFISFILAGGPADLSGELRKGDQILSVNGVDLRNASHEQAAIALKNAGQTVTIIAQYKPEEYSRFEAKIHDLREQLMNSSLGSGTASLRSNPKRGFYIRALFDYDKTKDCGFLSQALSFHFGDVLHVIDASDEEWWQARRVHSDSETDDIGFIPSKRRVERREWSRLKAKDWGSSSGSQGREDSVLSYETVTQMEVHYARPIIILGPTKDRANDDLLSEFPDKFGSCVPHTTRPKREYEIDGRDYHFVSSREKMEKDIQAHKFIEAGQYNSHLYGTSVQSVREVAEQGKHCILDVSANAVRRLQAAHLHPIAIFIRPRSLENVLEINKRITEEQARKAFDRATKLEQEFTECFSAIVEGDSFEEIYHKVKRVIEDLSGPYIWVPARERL

SMILES: Oc1c(Cl)cc(Cl)cc1CNc1ccc2[nH]nnc2c1 [IC87201]
- disruption of PSD95-nNOS interaction / binding (PSD95-nNOS [1]): disrupt PSD95-nNOS; also recorded: inhibited PSD95-nNOS binding
- NMDA-induced NO formation [2]: inhibit NMDA-induced NO formation
- NMDA-stimulated cGMP levels [2]: suppressed NMDA-stimulated cGMP levels
- disruption of unrelated PSD95-ERB4 interactions (PSD95-ERB4): not unrelated PSD95-ERB4 interactions; also recorded: without disrupting interaction of PSD95 with unrelated proteins
- source memory (rats [3]): failed to impair spatial memory or source memory
- spatial working memory (rats [3]): failed to impair spatial memory or source memory
- single trial CPP to the inhibitor alone (rats [4]): failed to do so
- single trial morphine-induced CPP on acute co-treatment (rats [4]; morphine 6 mg/kg i.p.): blocked
- pain hypersensitivity / pathological pain [5]: suppress pain hypersensitivity; also recorded: suppresses pathological pain
- nociceptive responding / basal nociceptive thresholds without injury [5]: without altering nociceptive responding; also recorded: without altering basal nociceptive thresholds
- memory in the novel object recognition test [6]: did not impair memory
- motor performance in the rota-rod test (Rota-rod test): did not impair
- conditioned place preference to morphine on coadministration (rats [7]): conditioned place preference to morphine was no longer observed
- memory in the Morris Water maze (Morris Water maze): do not impair memory

SMILES: COC(=O)[C@@H](N)CCCNC(=N)N[N+](=O)[O-] [L-NAME]
- L-arginine enhancement of acquisition of CPP to morphine (rats [8]; NOS inhibitor): this enhancement was blocked

SMILES: N=C(N)NCCC[C@H](N)C(=O)O [L-arginine]
- acquisition of CPP to morphine (rats [8]; NO donor in the central amygdala): increased acquisition of CPP to morphine

SMILES: C[C@]12N[C@H](Cc3ccccc31)c1ccccc12 [MK801, reference compound]
- NMDA-stimulated cGMP levels [2]: suppressed NMDA-stimulated cGMP levels
- source memory (rats [3]): eliminated (i.e. did not differ from chance)
- spatial working memory (rats [3]): unaffected
- morphine-induced CPP (rats [8]; rats, MK801 0.1 mg/kg i.p., doses that do not alter chamber preference): blocked

SMILES: O=C(O)c1ccc(NCc2cc(Cl)cc(Cl)c2O)cc1O [ZL006]
- association of nNOS with PSD95 in ischemic cortices (nNOS with PSD95): inhibits the association of nNOS with PSD95 in ischemic cortices
- disruption of PSD95-nNOS interaction / binding (PSD95-nNOS [1]): disrupt PSD95-nNOS; also recorded: inhibited PSD95-nNOS binding
- NMDA-induced NO formation [2]: inhibit NMDA-induced NO formation
- NMDA-stimulated cGMP levels [2]: suppressed NMDA-stimulated cGMP levels
- disruption of unrelated PSD95-ERB4 interactions (PSD95-ERB4): not unrelated PSD95-ERB4 interactions; also recorded: without disrupting interaction of PSD95 with unrelated proteins
- source memory (rats [3]): failed to impair spatial memory or source memory
- spatial working memory (rats [3]): failed to impair spatial memory or source memory
- ischemia induced damage (mice): inhibits ischemia induced damage
- single trial CPP to the inhibitor alone (rats [4]): failed to do so
- single trial morphine-induced CPP on acute co-treatment (rats [4]; morphine 6 mg/kg i.p.): blocked
- pain hypersensitivity / pathological pain [5]: suppress pain hypersensitivity
- nociceptive responding / basal nociceptive thresholds without injury [5]: without altering nociceptive responding
- morphine-induced dopamine efflux on co-administration (DA efflux in NAc shell; ZL006 10 mg/kg i.p. with morphine 6 mg/kg i.p., NAc shell, FIG. 8C): blocked the morphine-induced increase in evoked DA in NAc shell; also recorded: suppresses morphine-induced dopamine efflux in nucleus accumbens shell
- amount of DA released per stimulus pulse (DA efflux in NAc shell; ZL006 10 mg/kg i.p., FIG. 7C): does not affect the amount of DA released per stimulus pulse
- amount of DA uptake per stimulus pulse (DA efflux in NAc shell; ZL006 10 mg/kg i.p., FIG. 7D): does not affect the amount of DA uptake per stimulus pulse
- evoked DA response before and 30 min after drug (DA efflux in NAc shell; ZL006 10 mg/kg i.p., anesthetized rat, FIG. 8B, pilot data, 10 mg/kg): clear decrease in DA signal within 30 min; also recorded: decrease in DA evoked response
- evoked dopamine (DA) efflux, drug alone (DA efflux in NAc shell; medial forebrain bundle stimulation, morphine 6 mg/kg i.p., ZL006 10 mg/kg i.p., FIG. 7A, 7B): does not increase dopamine (DA) efflux
- memory in the novel object recognition test [6]: did not impair memory
- motor performance in the rota-rod test (Rota-rod test): did not impair
- conditioned place preference to morphine on coadministration (rats [7]): conditioned place preference to morphine was no longer observed
- memory in the Morris Water maze (Morris Water maze): do not impair memory

SMILES: O=C(O)c1cc(NCc2cc(Cl)cc(Cl)c2O)ccc1O [ZL007, reference compound]
- disruption of PSD95-nNOS interactions by the inactive analog (PSD95-nNOS [9]): does not disrupt PSD95-nNOS interactions

SMILES: CN1CC[C@]23c4c5ccc(O)c4O[C@H]2[C@@H](O)C=C[C@H]3[C@H]1C5 [morphine, reference compound]
- active versus inactive lever presses in self-administration (rats [10]; FR1, naïve, sham and neuropathic rats): Active lever presses were greater than inactive presses in all groups
- mechanical thresholds (rats [10]; naïve rats, FIG. 6A): did not alter mechanical thresholds
- single trial CPP to the drug alone (morphine) (rats [4]; naïve rats, morphine 6 mg/kg i.p., FIG. 3A): robust single trial CPP
- conditioned place preference to morphine, repeated pairings (rats [7]; morphine 6 or 10 mg/kg i.p. × 4 pairings, FIG. 4C, 4D): produced robust conditioned place preference
